Experimental data reported in the NIST ThermoML archive (doi:10.1016/j.jct.2013.12.012).
Values joined by “and” are separate entries in the source; they are usually repeats but may differ in a detail not shown here. Identical values can stand only once.

Key:
[1] = for vapor or sublimation pressure: Closed cell (Static) method; for Normal melting temperature / Triple point temperature: DTA
[2] = molar heat capacity at constant pressure
[3] = Molar enthalpy of transition or fusion; conditions: DSC

C=C1C2CCC(C2)C1(C)C (stereo not drawn) [2,2-dimethyl-3-methylenebicyclo[2.2.1]heptane]
[1], Crystal
Conditions	vapor or sublimation pressure
238.15 K	0.003435 kPa and 0.003436 kPa
243.15 K	0.005761 kPa and 0.005765 kPa and 0.005768 kPa
248.15 K	0.00946 kPa and 0.009464 kPa and 0.009473 kPa
253.15 K	0.01527 kPa
258.15 K	0.0241 kPa and 0.02413 kPa
263.15 K	0.03746 kPa and 0.03747 kPa
268.15 K	0.05698 kPa and 0.05699 kPa
273.15 K	0.08514 kPa and 0.08515 kPa and 0.08516 kPa
273.65 K	0.0885 kPa and 0.08853 kPa and 0.08854 kPa
278.15 K	0.1252 kPa
283.15 K	0.1811 kPa
288.15 K	0.2585 kPa and 0.2586 kPa and 0.2587 kPa
293.15 K	0.3628 kPa and 0.363 kPa and 0.3631 kPa
298.15 K	0.5037 kPa and 0.5038 kPa and 0.5039 kPa
303.15 K	0.6891 kPa and 0.6896 kPa and 0.69 kPa
308.15 K	0.934 kPa and 0.9343 kPa and 0.9345 kPa

Crystal
Conditions	Molar enthalpy of transition or fusion [kJ/mol]	Normal melting temperature [°C]
[1]	–	44.5
[3]	2.7	–

[2], 101.33 kPa, Large sample (1 g) DSC
Conditions	molar heat capacity at constant pressure [J/K/mol]
258.1 K, Crystal	211.1
263.2 K, Crystal	213.9
268.3 K, Crystal	216.8
273.4 K, Crystal	219.8
278.5 K, Crystal	222.7
283.6 K, Crystal	225.7
288.7 K, Crystal	228.8
293.8 K, Crystal	231.9
298.9 K, Crystal	235.1
324.5 K, Liquid	251.5
329.6 K, Liquid	254.5
334.7 K, Liquid	257.4
339.8 K, Liquid	259.8
344.9 K, Liquid	262.3
350 K, Liquid	265.6
355.1 K, Liquid	269.3

CC1(C)[C@H]2CC[C@]1(C)C(=O)C2 [(1S)-1,7,7-trimethylbicyclo[2.2.1]heptan-2-one]
[1], Crystal 2
Conditions	vapor or sublimation pressure
273.65 K	0.00359 kPa and 0.003604 kPa and 0.003606 kPa
278.15 K	0.005406 kPa and 0.005414 kPa and 0.00542 kPa
283.15 K	0.008302 kPa and 0.008322 kPa and 0.008324 kPa
288.15 K	0.01261 kPa and 0.01262 kPa and 0.0126 kPa
293.15 K	0.01883 kPa and 0.01885 kPa and 0.01888 kPa
298.15 K	0.02802 kPa and 0.02806 kPa and 0.02812 kPa
303.15 K	0.04122 kPa and 0.04127 kPa
308.15 K	0.05983 kPa and 0.05985 kPa and 0.05989 kPa

Conditions	Molar enthalpy of transition or fusion, Crystal 1 [kJ/mol]	Molar enthalpy of transition or fusion, Crystal 2 [kJ/mol]	Molar enthalpy of transition or fusion, Crystal 3 [kJ/mol]	Normal melting temperature, Crystal 1 [°C]	Triple point temperature, Crystal 2 [K]	Triple point temperature, Crystal 3 [K]
[1]	–	–	–	175.4	373.4	243.9
[3]	4.9	0.2	11	–	–	–

[2], 101.33 kPa, Crystal 2, Large sample (1 g) DSC
Conditions	molar heat capacity at constant pressure [J/K/mol]
273.4 K	241
278.5 K	242
283.6 K	243
288.7 K	244.9
293.8 K	246.6
298.9 K	248.9
304 K	251
309.1 K	253.2
314.2 K	255.5
319.4 K	256.9
324.5 K	259.7
329.6 K	262.5
334.7 K	264.8
339.8 K	267.2
344.9 K	270.5
350 K	273.6
355.1 K	276.7

CC1(C)[C@H]2CC[C@]1(C)[C@H](O)C2 [(1S-endo)-1,7,7-trimethylbicyclo[2.2.1]heptan-2-ol]
[1], Crystal 2
Conditions	vapor or sublimation pressure
273.65 K	0.000211 kPa and 0.000212 kPa
278.15 K	0.00036 kPa and 0.000361 kPa
283.15 K	0.000638 kPa and 0.000639 kPa
288.15 K	0.001105 kPa and 0.001106 kPa and 0.001104 kPa
293.15 K	0.001882 kPa and 0.001883 kPa
298.15 K	0.003159 kPa and 0.003161 kPa and 0.003162 kPa
303.15 K	0.005213 kPa and 0.005214 kPa and 0.005215 kPa
308.15 K	0.008461 kPa and 0.008464 kPa and 0.008465 kPa

Conditions	Molar enthalpy of transition or fusion, [3] [kJ/mol]	Normal melting temperature, [1] [°C]	Triple point temperature, [1] [K]
Crystal 1	7.3	207.2	–
Crystal 2	3.2	–	347.9

[2], 101.33 kPa, Crystal 2, Large sample (1 g) DSC
Conditions	molar heat capacity at constant pressure [J/K/mol]
273.4 K	237.9
278.5 K	241.9
283.6 K	246.4
288.7 K	250.5
293.8 K	255.4
298.9 K	261.2
304 K	266.7
309.1 K	272.5
314.2 K	279
319.4 K	286.1
324.5 K	293.6
329.6 K	302
334.7 K	311

CC1(C)C(=O)[C@@]2(C)CC[C@@H]1C2 [(+)-fenchone]
[1]
Conditions	vapor or sublimation pressure
238.15 K, Crystal 2	0.00014 kPa and 0.000141 kPa and 0.000142 kPa
243.15 K, Crystal 2	0.000277 kPa and 0.000278 kPa
243.15 K, Metastable liquid	0.000763 kPa and 0.000764 kPa
248.15 K, Crystal 2	0.000547 kPa and 0.000548 kPa
248.15 K, Metastable liquid	0.001307 kPa and 0.001308 kPa
253.15 K, Crystal 2	0.001053 kPa and 0.001054 kPa
253.15 K, Metastable liquid	0.002188 kPa and 0.002189 kPa
258.15 K, Crystal 2	0.001988 kPa and 0.001991 kPa and 0.001993 kPa
258.15 K, Metastable liquid	0.003604 kPa and 0.003605 kPa
263.15 K, Crystal 2	0.0037 kPa and 0.003705 kPa
263.15 K, Metastable liquid	0.005827 kPa and 0.005828 kPa and 0.005829 kPa
268.15 K, Crystal 2	0.006751 kPa and 0.006753 kPa
268.15 K, Metastable liquid	0.009242 kPa and 0.009244 kPa and 0.009246 kPa
273.15 K, Crystal 2	0.01206 kPa
273.15 K, Metastable liquid	0.01436 kPa
278.15 K, Crystal 1	0.02111 kPa and 0.02112 kPa
278.15 K, Metastable liquid	0.02193 kPa and 0.02194 kPa
283.15 K, Liquid	0.03289 kPa and 0.0329 kPa and 0.03291 kPa
288.15 K, Liquid	0.04842 kPa and 0.04845 kPa
293.15 K, Liquid	0.07036 kPa and 0.07037 kPa
298.15 K, Liquid	0.1007 kPa and 0.1008 kPa
303.15 K, Liquid	0.1421 kPa
308.15 K, Liquid	0.1977 kPa and 0.1978 kPa

Conditions	Molar enthalpy of transition or fusion, [3] [kJ/mol]	Normal melting temperature, [1] [°C]	Triple point temperature, [1] [K]
Crystal 1	–	5.5	–
Crystal 2	17.4	–	278

[2], 101.33 kPa
Conditions	molar heat capacity at constant pressure [J/K/mol]
273.4 K, Metastable liquid, Large sample (1 g) DSC	259.6
278.5 K, Metastable liquid, Large sample (1 g) DSC	260.7
283.6 K, Large sample (1 g) DSC, Liquid	263.6
288.7 K, Large sample (1 g) DSC, Liquid	264.6
293.8 K, Large sample (1 g) DSC, Liquid	266.6
298.9 K, Large sample (1 g) DSC, Liquid	269.8
304 K, Large sample (1 g) DSC, Liquid	271.8
309.1 K, Large sample (1 g) DSC, Liquid	274.4
314.2 K, Large sample (1 g) DSC, Liquid	277
319.4 K, Large sample (1 g) DSC, Liquid	278.9
324.5 K, Large sample (1 g) DSC, Liquid	281.7
329.6 K, Large sample (1 g) DSC, Liquid	284.7
334.7 K, Large sample (1 g) DSC, Liquid	287.3
339.8 K, Large sample (1 g) DSC, Liquid	289.9
344.9 K, Large sample (1 g) DSC, Liquid	292.7
350 K, Large sample (1 g) DSC, Liquid	295.6
355.1 K, Large sample (1 g) DSC, Liquid	298.8
